Bounds are passed on as bounds.

One data set is described as follows: Metabolic stability. The format is in vitro ADME.
The test system of data set [1] is Eμ-CRLF2/Eμ-Jak2 R683G/Ts1Rhr/Pax5+/− (line 2539p) B-ALL. Nature of the data set: Transplanted transgenic murine B-ALL model. Particulars: 14 days of treatment from day 15 after transplant.
For a further data set, the system named is VEGFR family kinases. As to the kind of experiment: Cell-based kinase selectivity assay.
Data set [2] has as its target T1, RET (Homo sapiens, UniProt P07949). As to the kind of experiment: Off-target activity compared with BBT594.
The test system of data set [3] is pSTAT5 in the spleen and bone marrow. Nature of the data set: rhEpo-induced pSTAT5 in murine model of polycythemia. The format is in vivo, mice.
Data set [4] deals with MHH-CALL4 cells. As to the kind of experiment: MHH-CALL4 cell viability. The format is cell-based, human. Particulars: 72 hr.
Data set [5] deals with Ba/F3-CRLF2 cells expressing JAK2 R683G/L884P. As to the kind of experiment: Immunoblotting of Ba/F3-CRLF2 JAK2 R683G/L884P lysates. To be noted: concentrations up to 200 nM, 2 hr. The format is cell-based.
Data set [6] has as its system panel consisting of over 400 kinases. Nature of the data set: In vitro kinase selectivity panel. The format is biochemical. Particulars: 100 nM; including JAK2 and TYK2.
For the next data set, the system named is BALB/c mice. Nature of the data set: rhEpo-induced splenomegaly and reticulocytosis, four days. The format is in vivo. Particulars: 30 mg/kg/day, sacrificed day 5.
In another data set the target is JAK2 (Homo sapiens, UniProt O60674). As to the kind of experiment: JAK2-driven cellular assays. The format is cell-based.
Sequence of JAK2 (O60674 840-1132 limits assumed): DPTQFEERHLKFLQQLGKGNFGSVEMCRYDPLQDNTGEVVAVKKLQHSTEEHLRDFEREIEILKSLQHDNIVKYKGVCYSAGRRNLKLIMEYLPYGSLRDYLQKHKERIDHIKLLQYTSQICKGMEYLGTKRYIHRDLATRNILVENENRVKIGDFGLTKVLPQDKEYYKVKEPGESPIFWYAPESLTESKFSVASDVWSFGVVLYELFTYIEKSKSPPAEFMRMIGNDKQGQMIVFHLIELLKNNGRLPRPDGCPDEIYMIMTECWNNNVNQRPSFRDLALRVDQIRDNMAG
For the next data set, the target named is KIT (Homo sapiens, UniProt P10721). As to the kind of experiment: Cell-based kinase selectivity assay.
Sequence of KIT (P10721 26-976, species assumed): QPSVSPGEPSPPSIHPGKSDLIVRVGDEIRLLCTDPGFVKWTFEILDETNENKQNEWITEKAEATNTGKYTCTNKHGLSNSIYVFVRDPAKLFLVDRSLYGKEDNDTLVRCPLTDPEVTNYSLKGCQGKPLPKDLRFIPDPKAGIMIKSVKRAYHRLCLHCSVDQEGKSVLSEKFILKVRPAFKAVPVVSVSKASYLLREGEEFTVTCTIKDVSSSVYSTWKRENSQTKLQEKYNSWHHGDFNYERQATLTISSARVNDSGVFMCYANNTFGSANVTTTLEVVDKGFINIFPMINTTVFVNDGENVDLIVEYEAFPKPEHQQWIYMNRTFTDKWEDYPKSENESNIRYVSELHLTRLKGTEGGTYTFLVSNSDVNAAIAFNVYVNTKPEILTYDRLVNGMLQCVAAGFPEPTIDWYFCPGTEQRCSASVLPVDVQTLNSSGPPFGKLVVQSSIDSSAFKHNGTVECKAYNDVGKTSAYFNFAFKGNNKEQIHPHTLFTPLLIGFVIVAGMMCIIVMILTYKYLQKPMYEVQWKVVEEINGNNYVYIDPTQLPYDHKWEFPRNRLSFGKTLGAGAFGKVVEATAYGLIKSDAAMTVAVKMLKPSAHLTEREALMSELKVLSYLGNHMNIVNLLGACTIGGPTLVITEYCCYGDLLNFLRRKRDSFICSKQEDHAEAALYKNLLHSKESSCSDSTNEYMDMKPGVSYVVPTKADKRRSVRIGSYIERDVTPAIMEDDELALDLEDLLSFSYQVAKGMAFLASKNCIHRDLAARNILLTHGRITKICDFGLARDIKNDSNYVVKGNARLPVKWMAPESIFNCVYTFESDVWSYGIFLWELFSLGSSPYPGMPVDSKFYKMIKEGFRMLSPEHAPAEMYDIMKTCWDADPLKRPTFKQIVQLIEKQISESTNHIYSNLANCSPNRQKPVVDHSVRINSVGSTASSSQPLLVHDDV
The target in a further data set is BRAF (Homo sapiens, UniProt P15056). Nature of the data set: Cell-based kinase selectivity assay. Particulars: follow-up of kinome panel hit.
Sequence of BRAF (P15056 whole entry, species assumed): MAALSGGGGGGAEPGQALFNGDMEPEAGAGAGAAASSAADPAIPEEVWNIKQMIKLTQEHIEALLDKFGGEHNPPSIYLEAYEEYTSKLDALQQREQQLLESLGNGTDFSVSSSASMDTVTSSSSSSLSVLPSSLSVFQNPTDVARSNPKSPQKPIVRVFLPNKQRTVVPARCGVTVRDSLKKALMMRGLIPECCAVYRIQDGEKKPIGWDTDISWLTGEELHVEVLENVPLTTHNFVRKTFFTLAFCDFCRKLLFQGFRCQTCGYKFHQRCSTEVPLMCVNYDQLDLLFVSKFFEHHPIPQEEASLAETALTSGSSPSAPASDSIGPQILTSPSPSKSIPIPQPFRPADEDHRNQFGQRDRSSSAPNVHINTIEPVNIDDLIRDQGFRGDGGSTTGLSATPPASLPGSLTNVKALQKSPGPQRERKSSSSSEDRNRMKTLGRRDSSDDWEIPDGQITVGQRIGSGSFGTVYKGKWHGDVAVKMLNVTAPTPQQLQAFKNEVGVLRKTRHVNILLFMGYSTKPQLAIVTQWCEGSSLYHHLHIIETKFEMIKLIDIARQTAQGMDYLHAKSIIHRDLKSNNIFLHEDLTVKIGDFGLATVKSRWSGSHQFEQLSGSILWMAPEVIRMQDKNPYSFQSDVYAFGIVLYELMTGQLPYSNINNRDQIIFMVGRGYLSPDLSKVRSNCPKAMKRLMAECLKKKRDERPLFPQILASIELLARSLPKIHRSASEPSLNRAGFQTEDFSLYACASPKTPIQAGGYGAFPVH
In data set [7] the test system is MHH-CALL4 cells. Nature of the data set: Immunoblotting of MHH-CALL4 lysates. The format is cell-based, human. To be noted: 1 μM, 2 hr. In general terms: Immunoblotting shows a protein as a band on a membrane.
Data set [8] deals with Ba/F3 cells expressing TEL-JAK2. Nature of the data set: Ba/F3 TEL-JAK2 growth inhibition. The format is cell-based.
For data set [9], the system named is CRLF2-rearranged B-ALL PDXs.
Another data set relates to PDGFR family kinases. Nature of the data set: Cell-based kinase selectivity assay.
Data set [10] has as its system CRLF2-rearranged PDXs. As to the kind of experiment: Dynamic BH3 profiling of PDX cells ex vivo. The format is cell-based, human. To be noted: 300 nM, 16 hr ex vivo.
The nature of the next data set: Passive permeability. The format is in vitro ADME.
In a further data set the test system is wild-type mice. As to the kind of experiment: Tolerability in wild-type mice. The format is in vivo. Particulars: 30 mg/kg/day for >6 weeks.
In the next data set the target is ABL (Homo sapiens, UniProt P00519). Nature of the data set: Cell-based kinase selectivity assay. To be noted: follow-up of kinome panel hit.
Sequence of ABL (P00519 whole entry, species assumed): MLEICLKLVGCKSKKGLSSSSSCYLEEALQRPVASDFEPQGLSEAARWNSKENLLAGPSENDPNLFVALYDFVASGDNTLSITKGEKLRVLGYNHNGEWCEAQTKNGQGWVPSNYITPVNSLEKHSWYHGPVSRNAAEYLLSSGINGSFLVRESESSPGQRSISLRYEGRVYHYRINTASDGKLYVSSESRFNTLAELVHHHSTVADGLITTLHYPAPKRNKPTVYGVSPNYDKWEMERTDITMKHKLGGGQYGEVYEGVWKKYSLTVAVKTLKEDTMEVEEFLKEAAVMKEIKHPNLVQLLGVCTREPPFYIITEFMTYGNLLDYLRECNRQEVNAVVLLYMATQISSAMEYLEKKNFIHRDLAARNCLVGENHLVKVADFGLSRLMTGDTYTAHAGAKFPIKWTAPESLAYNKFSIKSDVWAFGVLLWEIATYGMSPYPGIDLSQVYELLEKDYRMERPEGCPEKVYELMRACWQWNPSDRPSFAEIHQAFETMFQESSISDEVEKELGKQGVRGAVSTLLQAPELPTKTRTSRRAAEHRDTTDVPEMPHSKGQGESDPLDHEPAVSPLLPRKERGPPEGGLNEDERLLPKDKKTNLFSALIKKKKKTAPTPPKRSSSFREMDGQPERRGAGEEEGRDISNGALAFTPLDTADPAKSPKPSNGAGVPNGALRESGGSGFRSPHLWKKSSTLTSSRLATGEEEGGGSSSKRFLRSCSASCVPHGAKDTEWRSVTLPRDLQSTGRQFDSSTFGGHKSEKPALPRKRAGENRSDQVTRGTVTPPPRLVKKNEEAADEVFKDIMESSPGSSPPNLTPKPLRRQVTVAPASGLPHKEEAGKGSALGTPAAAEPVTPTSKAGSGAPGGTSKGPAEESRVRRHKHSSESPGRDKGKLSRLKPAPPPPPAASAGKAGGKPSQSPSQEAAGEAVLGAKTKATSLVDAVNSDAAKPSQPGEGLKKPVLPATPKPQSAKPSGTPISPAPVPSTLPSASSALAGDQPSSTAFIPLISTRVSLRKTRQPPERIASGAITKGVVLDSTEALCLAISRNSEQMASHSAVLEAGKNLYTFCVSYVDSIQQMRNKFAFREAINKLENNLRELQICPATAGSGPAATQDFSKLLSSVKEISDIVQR
The target in data set [11] is activated (phosphorylated) JAK2 kinase (Homo sapiens, UniProt O60674). Nature of the data set: JAK2 biochemical kinase assay.
Sequence of activated (phosphorylated) JAK2 kinase (O60674 808-1132): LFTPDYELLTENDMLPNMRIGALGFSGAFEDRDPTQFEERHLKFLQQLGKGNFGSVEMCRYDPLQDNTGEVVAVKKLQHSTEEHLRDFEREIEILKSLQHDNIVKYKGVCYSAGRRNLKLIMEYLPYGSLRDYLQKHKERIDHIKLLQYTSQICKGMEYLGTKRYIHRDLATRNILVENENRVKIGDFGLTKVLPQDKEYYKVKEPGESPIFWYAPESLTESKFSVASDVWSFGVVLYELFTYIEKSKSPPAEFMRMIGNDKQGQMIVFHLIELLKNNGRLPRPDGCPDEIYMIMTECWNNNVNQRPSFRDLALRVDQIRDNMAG
For data set [12], the system named is Ba/F3-EpoR cells expressing JAK2 V617F or JAK2 V617F/L884P. As to the kind of experiment: Proliferation, L884P versus no L884P, JAK2 V617F. The format is cell-based. To be noted: 48 hr.
Data set [13] deals with Ba/F3-CRLF2 cells expressing JAK2 R683G or JAK2 R683G/L884P. As to the kind of experiment: Proliferation, L884P versus no L884P, JAK2 R683G. The format is cell-based. Particulars: 48 hr.
In a further data set the target is BCR-ABL (Homo sapiens, UniProt P00519+P11274). Nature of the data set: Off-target activity compared with BBT594.
Sequence of BCR-ABL (P00519 242-493 limits assumed, one chain of several): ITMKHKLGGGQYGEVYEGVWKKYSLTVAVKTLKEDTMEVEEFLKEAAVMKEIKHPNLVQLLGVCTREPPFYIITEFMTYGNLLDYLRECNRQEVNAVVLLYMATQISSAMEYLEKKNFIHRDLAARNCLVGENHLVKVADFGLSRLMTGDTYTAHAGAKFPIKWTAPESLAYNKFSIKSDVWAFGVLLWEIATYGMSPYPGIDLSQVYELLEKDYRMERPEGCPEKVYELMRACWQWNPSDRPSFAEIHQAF
The target in data set [14] is T1, RET. As to the kind of experiment: Cell-based kinase selectivity assay. To be noted: follow-up of kinome panel hit.
The next data set deals with FLT3 (Homo sapiens, UniProt P36888). Nature of the data set: Off-target activity compared with BBT594.
Data set [15] concerns Ba/F3-CRLF2 cells transduced with a library of JAK2 R683G. As to the kind of experiment: Random mutagenesis screen for resistance. The format is cell-based. Particulars: 3 μM inhibitor, absence of cytokines.
Data set [16] has as its system Ba/F3-CRLF2/JAK2 R683G cells. Nature of the data set: Immunoblotting of Ba/F3-CRLF2/JAK2 R683G lysates. The format is cell-based. To be noted: 2 hr exposure.
Data set [17] can be described thus: Drug concentration within the spleen, rhEpo model. The format is in vivo, mice. To be noted: oral 30 mg/kg/day.
The subject of data set [18] is CRLF2-rearranged PDXs. As to the kind of experiment: PDX cells ex vivo, proliferation and apoptosis. To be noted: 1 μM; B-ALL-X2, -X3, -X4, -X6. The format is cell-based, human.
The nature of the next data set: Pharmacokinetics. The format is in vivo, mice.
For data set [19], the system named is MHH-CALL4 cells. As to the kind of experiment: Synergy screen with B-ALL chemotherapies. The format is cell-based, human. To be noted: isobologram, combination index.

T1 sequence (P07949 29-1114, species assumed): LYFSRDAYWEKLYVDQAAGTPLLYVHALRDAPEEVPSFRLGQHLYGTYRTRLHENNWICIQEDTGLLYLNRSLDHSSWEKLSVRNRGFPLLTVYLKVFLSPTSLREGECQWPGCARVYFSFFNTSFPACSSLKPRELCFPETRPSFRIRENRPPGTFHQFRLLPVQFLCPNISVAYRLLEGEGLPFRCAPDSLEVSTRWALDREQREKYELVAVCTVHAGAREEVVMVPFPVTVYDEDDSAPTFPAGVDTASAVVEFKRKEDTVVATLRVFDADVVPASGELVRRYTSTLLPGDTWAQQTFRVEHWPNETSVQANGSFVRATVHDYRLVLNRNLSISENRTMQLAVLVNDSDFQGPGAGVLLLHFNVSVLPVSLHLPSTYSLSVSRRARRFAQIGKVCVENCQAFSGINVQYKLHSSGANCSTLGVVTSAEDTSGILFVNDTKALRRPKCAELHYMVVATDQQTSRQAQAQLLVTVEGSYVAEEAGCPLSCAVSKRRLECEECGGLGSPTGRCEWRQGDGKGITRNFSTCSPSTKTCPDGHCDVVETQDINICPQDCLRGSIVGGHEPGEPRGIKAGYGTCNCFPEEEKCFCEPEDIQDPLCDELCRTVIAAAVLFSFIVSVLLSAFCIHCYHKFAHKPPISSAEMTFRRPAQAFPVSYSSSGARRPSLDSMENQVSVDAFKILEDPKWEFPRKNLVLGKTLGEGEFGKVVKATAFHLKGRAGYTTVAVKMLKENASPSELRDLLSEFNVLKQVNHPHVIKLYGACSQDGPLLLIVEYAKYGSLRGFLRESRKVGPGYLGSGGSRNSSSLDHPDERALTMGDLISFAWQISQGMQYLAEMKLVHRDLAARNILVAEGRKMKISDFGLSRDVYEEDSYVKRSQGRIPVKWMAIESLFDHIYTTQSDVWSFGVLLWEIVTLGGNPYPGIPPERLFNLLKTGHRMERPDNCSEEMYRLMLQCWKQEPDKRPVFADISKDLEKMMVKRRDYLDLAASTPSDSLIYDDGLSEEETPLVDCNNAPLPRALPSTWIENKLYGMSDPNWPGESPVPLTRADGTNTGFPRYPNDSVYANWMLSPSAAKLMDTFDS

Broadly, the IC50 is the concentration at which inhibition is half-maximal. Higher therefore signals a need for much substance. With `CC(=O)Nc1cc(Oc2ccc3c(nc(Nc4ccc(F)cc4F)n3C)c2C)ccn1` [CHZ868], in “Metabolic stability”, the metabolic stability result was “good”. Also, the “overall survival compared to vehicle” value in data set [1] is reported as “increased overall survival”. Besides, the “activity against VEGFR family kinases in the cellular setting” value in the data set on VEGFR family kinases is listed as “low nanomolar activity”. In addition, at RET [2], the “RET inhibition compared with BBT594” value was “significantly reduced”. The “induction of pSTAT5 by rhEpo” value in [3] (oral 30 mg/kg/day, administered 2 hr prior to sampling) is “completely blocked”. In addition, the “time for which rhEpo induction of pSTAT5 remained attenuated” value in data set [3] (spleen and bone marrow) is on record as 48–72 hr. The IC50 in the data set on MHH-CALL4 cells [4] is ~100 nM. Also, in data set [5], the “suppressive effects on pJAK2, pSTAT5, and c-Myc in presence of L884P” value is “abrogated”. In addition, the “number of kinases with activity” value in data set [6] is listed as 26 kinases. Moreover, in the data set with BALB/c mice, the WBC count result is “did not affect”, the “increase in reticulocyte count induced by rhEpo” value is on record as “blocked” and the “splenomegaly induced by rhEpo” value is reported as “completely blocked”. The “potency in JAK2-driven cellular assays” value on JAK2 is reported as “excellent potency”. For the same molecule, on KIT, the “activity against KIT in the cellular setting” value is “low nanomolar activity”. At BRAF, the “activity against BRAF in the cellular setting” value is given as “not corroborated”. In addition, in the data set with MHH-CALL4 cells [7], the “JAK2 activation loop phosphorylation” value is “suppressed JAK2 phosphorylation”. Further, in data set [8], the “activity in Ba/F3 TEL-JAK2 cells” value is “highly active”. In [9] (30 mg/kg/day, 6 days), the pSTAT5 in spleens entry was “almost complete loss”, the “peripheral WBC counts compared to control animals” value is “lower” and the “splenomegaly compared to control animals” value is given as “reduced splenomegaly”. Also, the “overall survival compared to control animals” value in data set [9] (25 days of treatment) is recorded as “markedly improved”. In addition, in the data set with PDGFR family kinases, the “activity against PDGFR family kinases in the cellular setting” value is listed as “low nanomolar activity”. Moreover, the “cytochrome C release upon exposure to BIM compared to vehicle” value in the data set on CRLF2-rearranged PDXs [10] was “significantly increased”. For the same molecule, the passive permeability entry in “Passive permeability” is given as “high”. For the same molecule, in the data set on wild-type mice, the “effects on body weight, peripheral blood cell counts, bone marrow cellularity, fractions of hematopoietic progenitors” value is listed as “no significant effects” and the spleen weights entry is “trends towards reduced”. Also, the serum erythropoietin levels result with wild-type mice (trend) is listed as “elevated”. The “activity against ABL in the cellular setting” value on ABL is “not corroborated”. The “inhibitory activity in enzymatic assays” value in [11] (activated (phosphorylated) JAK2 kinase) is recorded as “modest inhibitory activity”. Besides, the “JAK2 inhibitory activity, fold improved over BBT594” value in data set [11] (enzymatic and cell-based assays, Figure 1B) is reported as 3–9 fold. For the same molecule, in data set [12], the “IC50 fold-shift for cells expressing L884P compared to cells without L884P” value (from here on “IC50 fold-shift … to cells without L884P”) was 2–3 fold. Also, the “IC50 fold-shift … to cells without L884P” value in [13] stood at 4 fold. Also, the “BCR-ABL inhibition compared with BBT594” value at BCR-ABL was “significantly reduced”. The “activity against RET in the cellular setting” value at RET [14] is listed as “not corroborated”. In addition, at FLT3, the “FLT3 inhibition compared with BBT594” value is “significantly reduced”. Further, the “resistant clones recovered after selection” value in [15] is “none”. Moreover, the “pJAK2 and pSTAT5 by immunoblotting” value in [16] is on record as “completely abrogated”. In addition, the “concentration within the spleen” value in [17] (2 hr after dosing) amounted to 4.3 nmol/g. The “drug level within the spleen” value in data set [17] (6 hr after dosing) is < 1 nmol/g. In addition, in the data set with CRLF2-rearranged PDXs [18], the apoptosis ex vivo entry is recorded as “induced apoptosis” and the proliferation ex vivo result is reported as “consistently blocked proliferation”. Besides, in “Pharmacokinetics” (mice), the “blood t1/2” value was 1 h. Besides, in “Pharmacokinetics” (mouse, in vivo), the blood clearance result is recorded as “moderate”. For the same molecule, the oral bioavailability entry in “Pharmacokinetics” (mouse, in vivo, po) is listed as “good”.

Consider `C[C@@H]1C[C@H]2[C@@H]3CCC4=CC(=O)C=C[C@]4(C)[C@@]3(F)[C@@H](O)C[C@]2(C)[C@@]1(O)C(=O)CO` [dexamethasone, reference compound], for which the “synergy with CHZ868” value with MHH-CALL4 cells [19] is on record as “most notable synergy”. Further, in data set [1], the “overall survival compared to vehicle” value is reported as “increased overall survival”.

For the molecule `Fc1cc(-c2cccc3ncc(-c4cnn(C5CCNCC5)c4)nc23)cc(F)c1CN1CCOCC1` [BSK805], the IC50 in the data set with MHH-CALL4 cells [4] was > 2000 nM. In addition, the “JAK2 activation loop phosphorylation” value with MHH-CALL4 cells [7] is “hyperphosphorylation”. Further, the “IC50 fold-shift … to cells without L884P” value in data set [13] is “minimal effects”.

With `N#CC[C@H](C1CCCC1)n1cc(-c2ncnc3[nH]ccc23)cn1` [ruxolitinib], in the data set with MHH-CALL4 cells [7], the “JAK2 activation loop phosphorylation” value is recorded as “hyperphosphorylation”. Besides, in the data set on CRLF2-rearranged PDXs [18], the apoptosis ex vivo entry was “little or no effect” and the proliferation ex vivo result was “little or no effect”.

For `CC(=O)Nc1cc(Oc2ccc3c(c2)CCN3C(=O)Nc2ccc(CN3CCN(C)CC3)c(C(F)(F)F)c2)ncn1` [BBT594], the IC50 in the data set with MHH-CALL4 cells [4] was ~100 nM. In addition, the “suppressive effects on pJAK2, pSTAT5, and c-Myc in presence of L884P” value in data set [5] is listed as “abrogated”. Besides, in the data set on MHH-CALL4 cells [7], the “JAK2 activation loop phosphorylation” value is given as “suppressed JAK2 phosphorylation”. In [12], the “IC50 fold-shift … to cells without L884P” value is reported as 2–3 fold. In addition, in data set [13], the “IC50 fold-shift … to cells without L884P” value is “approximately 11 fold”. Moreover, in [15], the “resistant clones recovered after selection” value is reported as “Over 30 clones”. In addition, in the data set with CRLF2-rearranged PDXs [18], the apoptosis ex vivo entry was “induced apoptosis” and the proliferation ex vivo entry is “consistently blocked proliferation”.

On to `C[C@@H]1CN(c2ccc(Nc3ncc4ccn(-c5cc(F)c(CN6CCOCC6)c(F)c5)c4n3)cc2)C[C@H](C)N1` [BVB808], for which the IC50 in the data set with MHH-CALL4 cells [4] was > 2000 nM. Further, the “JAK2 activation loop phosphorylation” value in the data set on MHH-CALL4 cells [7] is reported as “hyperphosphorylation”. In data set [13], the “IC50 fold-shift … to cells without L884P” value is recorded as “minimal effects”.

Source of the values: paper PMC4505625 (Cancer cell, 2015).
